# Key:
# Drosophila melanogaster = assay: Fly two-choice behavior assay; assay type: in vivo
# Description: Male flies (Drosophila melanogaster) of the w^1118 genotype were “wet-starved” for 24 hours in plastic culture vials lacking food but supplemented with wet cotton plugs on the bottom. After the 24 hour fasting period before the assay, flies were placed into a two-choice behavior chamber. This two-choice chamber consists of one 15 cm Petri dish with two round holes (2.2 cm diameter) that were punched along the midline at an equal distance (2.9 cm) from the rim. Two small plastic vials were connected to the dish and plugged with rigid cotton plugs perforated with 1 mL pipette tips. The bottom of each trap vial was humidified with the same cotton plugs used to plug the vial by soaking the plug in deionized water for a few seconds until it was fully wetted. Each trap contained a small filter paper strip with 10 μL of either water or pure odor (3-methyl-thio-1-propanol). Flies could enter one of the two traps through a plastic pipette tip (1 mL) inserted into top of each vial. 10 μL of RU-14, or solvent (100% ethanol) or DEET was placed on small circular filter paper, and introduced into the pipette tips at the entrance. […] After 24 hours, flies were counted and a response was computed by calculating the percent of flies in each trap. Significance was assessed using the Mann-Whitney U-test. […]
# Aedes aegypti = assay: Mosquito two-port olfactometer behavioral assay; assay type: in vivo; conditions: 3.5 mg dose; female mosquitoes, human hand odor and CO2, two-port olfactometer
# Description: Female Aedes aegypti Orlando mosquitoes (8-11 days old) were used in this assay. Larvae were hatched from dried egg papers and were reared in pans with deionized water supplemented with two tablets of fish food “TetraMin®” from Tetra every day. Pupae were transferred to cages and maintained before and after eclosion at 25° C. and 70-80% humidity with a 12 hr light: 12 hr dark photocycle. Adults were fed a 10% corn syrup solution and were free to mate with each other. One day prior to the assay, females were separated and placed into starvation cartridges (each containing 20 mosquitoes) without any food or water. The cartridges were placed at 25° C. and 70-80% humidity overnight (>l4hr).
# A two-port olfactometer, adapted from Gouck (Gouck, H. K. Host preferences of various strains of Aedes aegypti and Aedes simpsoni as determined by an olfactometer. Bull. World Health Org. 47:680-683, 1972) was used to assess the repellent characteristic of small compounds by measuring mosquito host-seeking preference to human odor with a compound or its solvent. […] After 8 minutes, the number of mosquitoes in the trapping chambers (“attracted”) and main compartment (“not-attracted”) was counted. Data were expressed as % attracted/% activated. Significance was assessed using the analysis of variance, ANOVA. […] Significance was assessed using the Mann-Whitney U-test. […]
Compound,inhibition of host-seeking behavior (Aedes aegypti),also measured
Fc1cccc(Cl)c1Cn1ccnc1CN(CC1CCCC1)C1CC1 [RU-I4],,suppression of 3MTP attraction (Drosophila melanogaster; 3.5 mg dose): significant suppression
CN(Cc1nccn1Cc1c(F)cccc1Cl)C(=O)C1CCCC1 [RU-I5],significant inhibition,
"CCN(CC)C(=O)c1cccc(C)c1 [DEET, N,N-diethyl-m-toluamide, reference compound]",,suppression of 3MTP attraction (Drosophila melanogaster; range of 1 mg to 10 mg): significant suppression
O=C(C1CCCC1)N(Cc1nccn1CCc1c(F)cccc1Cl)C1CC1 [RU-I2],significant inhibition,

# Reference: patent publication US20130324522A1, “INSECT ODORANT RECEPTOR ANTAGONISTS” (THE ROCKEFELLER UNIVERSITY, priority 2010, published 2013)
